Results taken from patent US20040219201A1, “Tempamine compositions and methods of use” (priority 2001, published 2004).
Read-outs that look alike come from different tables or passages of the source.

Key:
[1] = Samuni et al. 1997; cited from earlier work
[2] = system: MCF-7 (human breast adenocarcinoma); assay: Cytotoxicity assay (methylene blue); nitroxides alone or doxorubicin plus tempamine; format: cell-based; settings: for IC50: Homo sapiens
Protocol: (§1) As described in Example 1, the cytotoxicity of tempamine was determined on three cell lines, MCF-7 (human breast adenocarcinoma), M-109S (doxorubicin-sensitive human breast carcinoma), and M-109R (doxorubicin-resistant human breast carcinoma). The effect of free tempamine on cell proliferation was determined by a methylene blue assay as described in Example 1B.
FIG. 4 is a plot comparing the percent survival of MCF-7 human breast carcinoma cells at various doses of tempamine (closed circles) and tempol (open circles) in vitro. The cells were analyzed after 72 hours of exposure to the nitroxides. Tempamine and tempol cell growth inhibitory activities were of similar magnitude.
(§2) In yet another aspect, the invention contemplates administration of tempamine in combination with chemotherapeutic agent. […] Doxorubicin was chosen as a model chemotherpeutic agent. The enhancement of doxorubicin cytotoxicity by tempamine was tested on three cell lines, as described in Example 1A. A cytotoxicity assay as described in Example 1B was used. Two of the cell lines, MCF-7 and M-109S, were doxorubicin-sensitive lines and one cell line, M-109R, was doxorubicin resistant. MCF-7 cells are more sensitive to tempamine (100 μM caused 75% growth inhibition), but are less sensitive to doxorubicin, than are M-109S cells.
(§3) MCF-7 (human breast adenocarcinoma), M-109S (doxorubicin-sensitive human breast carcinoma), and M-109R (doxorubicin-resistant human breast carcinoma) were maintained in RPMI medium (Biological Industries, Beit HaEmek, Israel) supplemented with 10% fetal calf serum (FCS). The cell lines were maintained under standard culture conditions at 37° C. in a humidified 5% CO2 atmosphere.
(§4) The effect of tempamine on cell proliferation was determined by the methylene blue assay (Horowitz, A. T., et al., Biochim BiophysActa. 1109:203, (1992)). Briefly, cells were seeded onto 96-well plates (MCF cells at a density of 6×10^3 cells per well, and M-109S and M-109R at a density of 1.5×10^3 cells per well) and allowed to grow for 24 hours prior to treatment with different concentrations of tempamine. After the addition of tempamine (5×10^−5 to 4×10^−4), the cells were incubated in RPMI +10% FCS for four days without change of medium. Then the cells were fixed with 2.5% glutaraldehyde, stained with methylene blue and assayed spectrophotometrically.

[3] = system: M-109S (doxorubicin-sensitive human breast carcinoma); assay: Cytotoxicity assay (methylene blue); tempamine alone or doxorubicin plus tempamine; format: cell-based; settings: M-109S; for IC50: Homo sapiens
Protocol: as §1, §2, §3, §4

Compound | affinity to n-octanol versus aqueous phase [1] | IC50 ([2]; MCF7, read-out: IC50 of Doxorubicin (nM) in the presence of 200 μM tempamine, MCF-7) | IC50 ([2]; MCF7, MCF-7, read-out: IC50 of Doxorubicin (nM) in the presence of 0 μM tempamine) | IC50 ([2]; MCF7, MCF-7, read-out: IC50 of Doxorubicin (nM) in the presence of 50 μM tempamine) | IC50 ([2]; MCF7, MCF-7, read-out: IC50 of Doxorubicin (nM) in the presence of 100 μM tempamine) | change of IC50 value of doxorubicin ([2]; MCF-7, in the presence of 100 μM TMN) | IC50 ([3]; read-out: IC50 of Doxorubicin (nM) in the presence of 200 μM tempamine) | IC50 ([3]; read-out: IC50 of Doxorubicin (nM) in the presence of 0 μM tempamine) | IC50 ([3]; read-out: IC50 of Doxorubicin (nM) in the presence of 100 μM tempamine) | observed IC50 of doxorubicin decreased to ([3]; addition of 100-200 μM tempamine) | IC50 ([2]; MCF7, 72 h, read-out: IC50 (cell growth inhibition))
CC1(C)CCCC(C)(C)N1[O] [TEMPO] | much higher affinity to n-octanol than to the aqueous phase |  |  |  |  |  |  |  |  |  | 
COc1cccc2c1C(=O)c1c(O)c3c(c(O)c1C2=O)C[C@@](O)(C(=O)CO)C[C@@H]3O[C@H]1C[C@H](N)[C@H](O)[C@H](C)O1 [doxorubicin] |  | 55 ± 4.1 nM | 487 ± 32 nM | 475 ± 38 nM | 67 ± 5.8 nM | decreased by one order of magnitude | 18 ± 1.1 nM | 60 ± 4 nM | 27 ± 1.7 nM | 50% | 
CC1(C)CC(O)CC(C)(C)N1[O] [tempol] | much higher affinity to n-octanol than to the aqueous phase |  |  |  |  |  |  |  |  |  | 320000 nM
